Like-named read-outs stand apart in the source and are kept apart here. One block for each compound: values may come before it.
What was measured:
K15A-TTR = molecular target: T1, K15A-TTR (Homo sapiens, UniProt P02766, K35A); assay: Non-covalent binding stoichiometry to K15A-TTR (immunocapture, HPLC); conditions: maximum of 2 equivalents, washing, high-pH dissociation
T1 construct: composed of 127-residue β-sheet-rich subunits; made in house
Description: K15A-TTR and any compound bound to it was immunocaptured using a Sepharose-resin-conjugated anti-TTR antibody.
The ability of compounds A1 and A2, auxochromic analogs of previously discussed stilbenes [Klabunde et al., Nat. Struct. Biol. 2000, 7, 312-321; Connelly et al., Curr. Opin. Struc. Biol. 2010, 20, 54-62; Johnson et al., J. Med. Chem. 2008, 51, 6348-6358; Choi et al., J. Am. Chem. Soc. 2010, 132, 1359-1370; Choi et al., Nat. Chem. Biol. 2010, 6, 133-139; and Baures et al., Bioorg. Med. Chem. 1998, 6, 1389-1401] to form a chemoselective amide bond with the K15 residue of TTR was assessed by reverse-phase-HPLC and liquid chromatography-mass spectrometry analysis. […]
To 1 mL of WT- or K15A-TTR (5 μM in pH 7.0 phosphate buffer) in a 2 mL Eppendorf tube was added A2 (5 μL of a 2 mM solution in DMSO, final concentration: 10 μM) and then the solution was incubated at 37° C. for 24 hours on a rocker plate (30 rpm). […] After centrifugation, the supernatant was analyzed by reverse phase HPLC on a Water 600 E multi-solvent delivery system, using a Waters 486 tunable absorbance detector, a 717 autosampler, and a ThermoHypersil Keystone Betabasic-18 column (150 Å pore size, 3 μm particle size). […]

[1] = system: WT-TTR cytotoxicity in human IMR-32 neuroblastoma cells; assay: Inhibition of WT-TTR cytotoxicity in IMR-32 cells (resazurin reduction); format: cell-based; conditions: WT-TTR 8 μM, compounds 2, 4, 6 and 8 μM, 24 hours
Description: Cell viability was measured after 24 hours by a resazurin reduction assay.
(§1) The human neuroblastoma IMR-32 cell line (CCL-127 ATCC) was maintained in Opti-MEM® medium (Invitrogen), supplemented with 5% FBS, 1 mM Hepes buffer, 2 mM L-glutamine, 100 units/mL penicillin, 100 μg/mL streptomycin and 0.05 mg/mL CaCl2 (complete cell medium). Cells were seeded in black wall, clear bottom, tissue culture treated 96-well plates (Costar) at a density of 6,000 cells/well in complete cell medium and incubated overnight (about 18 hours) at 37° C.
(§2) Recombinant WT-TTR purified in the cold was used as the cytotoxic insult. The protein was buffer-exchanged in Hanks' Balanced Salt Solution (HBSS, Mediatech, Manassas, Va.) at 10° C. using a Centriprep® filter device (10 kDa MWCO, Millipore). Compounds (16 mM in DMSO) were diluted 1:1000 with WT-TTR (16 μM in HBSS, filter sterilized) or with HBSS only, vortexed and incubated for 18 hours at 37° C. WT-TTR (16 μM in HBSS) containing the same amount of DMSO was prepared in parallel and incubated under the same conditions.
(§3) The medium was removed from the cells and replaced immediately by the TTR/compound mixtures or HBSS previously diluted 1:1 in Opti-MEM® supplemented with 0.8 mg/mL BSA, 2 mM Hepes buffer, 4 mM L-glutamine, 200 units/mL penicillin, 200 μg/mL streptomycin and 0.1 mg/mL CaCl2. The cells were incubated 24 hours at 37° C. Cell viability was evaluated by a resazurin reduction assay.
(§4) Briefly, 10 μL of resazurin (500 μM, PBS) was added to each well and fluorescence quantified in a plate reader (Ex/Em 530/590 nm, Tecan Safire 2, Austria) after 1 hour of incubation at 37° C. Cell viability was calculated as percentage of fluorescence relative to cells treated only with vehicle (100% viability) after subtraction of blank fluorescence (wells without cells). Averages and standard errors from 2 independently performed studies, each performed at least in triplicate, were calculated using GraphPrism (San Diego, Calif., US).

IMR-32 cells = assay: Compound cytotoxicity to IMR-32 cells in the absence of WT-TTR; format: cell-based, human
Description: Metabolically active cells reduce the resazurin redox dye to resorufin, a soluble fluorescent compound. [O'Brien et al., Eur. J. Biochem. 267:5421-5426 (2002)] The percentage of viable cells was calculated relative to cells treated with vehicle only (cell culture media and DMSO=100% viable).
as §1, §2, §3, §4

equivalents non-covalently bound to K15A-TTR homotetramer (K15A-TTR): 0.88 equivalents
SMILES: Cc1cc(/C=C/c2cc(C(=O)Sc3ccc(F)cc3)cc(N(C)C)c2)cc(C)c1O [Compound A2, (E)-S-4-fluorophenyl 3-(dimethylamino)-5-(4-hydroxy-3,5-dimethylstyryl)-benzothioate]

SMILES: Cc1cc(/C=C/c2cccc(C(=O)Sc3ccccc3)c2)cc(C)c1O [Compound 2, (E)-S-phenyl 3-(4-hydroxy-3,5-dimethylstyryl)benzothioate]
inhibition of WT-TTR cytotoxicity to IMR-32 cells (in words) [1]: clearly and dose-dependently inhibits IMR-32 cytotoxicity | cytotoxicity to IMR-32 cells in the absence of WT-TTR (IMR-32 cells): None of these compounds were cytotoxic to IMR-32 cells

SMILES: Cc1cc(/C=C/c2cccc(C(=O)Oc3ccc(F)cc3)c2)cc(C)c1O [Compound 4, (E)-4-fluorophenyl 3-(4-hydroxy-3,5-dimethylstyryl)benzoate]
equivalents non-covalently bound to K15A-TTR homotetramer (K15A-TTR): 1.4 equivalents | inhibition of WT-TTR cytotoxicity to IMR-32 cells (in words) [1]: clearly and dose-dependently inhibits IMR-32 cytotoxicity | cytotoxicity to IMR-32 cells in the absence of WT-TTR (IMR-32 cells; human, IMR-32 neuroblastoma cells, 24 h, 8 µM): None of these compounds were cytotoxic to IMR-32 cells
